The subject of data set [1] is P. aeruginosa. Kind of data set: Broth microdilution MIC (Example 10). In general terms: In broth dilution the organism is exposed to a series of concentrations in liquid medium.
The test system of data set [2] is Burkholderia cepacia complex. Kind of data set: Checkerboard FIC assay, BisEDT with CF agents (Example 10). Format: cell-based, Burkholderia spp. Particulars: for MIC: agent alone, as observed during FIC testing.
Data set [3] concerns Burkholderia cepacia complex. The experiment in a line: Broth microdilution MIC (Example 10). Conditions: initial MIC testing.
In data set [4] the test system is Enterococcus spp. (E. faecalis, E. faecium). Kind of data set: Broth microdilution MIC (Example 11). Format: cell-based. Particulars: Enterococcus faecium, VRE, E. faecium MMX 485; VRE, vanA, LevR, CipR, EryR; read-out: MIC.
In data set [5] the test system is beta-hemolytic streptococci (S. pyogenes, S. agalactiae). Kind of data set: Broth microdilution MIC (Example 11). Format: cell-based, Streptococcus pyogenes, Streptococcus agalactiae. Conditions: read-out: MIC.
Data set [6] deals with Pseudomonas aeruginosa strain PA01. The experiment in a line: Bacterial killing curves with and without 10% CF patient sputum.
Data set [7] relates to P. aeruginosa. The experiment in a line: Checkerboard FIC assay, BisEDT with CF agents (Example 10). Format: cell-based, Pseudomonas aeruginosa. Particulars: for Drug B MIC: Colistin alone (checkerboard with BisEDT).
A short description of data set [8]: Aerosol particle size distribution of nebulized suspensions (cascade impactor / APS). Particulars: exposure aerosols of the rat efficacy study, In-Tox Mercer Impactor.
The mark [9] stands for this setting: S. agalactiae MMX 3741, ERY^R CC^R.
The mark [10] stands for this setting: S. agalactiae MMX 3743, ERY^R CC^R.
Setting [11] is: S. agalactiae MMX 4077, ERY^R CC^R.
[12] abbreviates: S. agalactiae MMX 4079, ERY^R CC^R Pen^R MEM^R.
Setting [13] is: S. agalactiae MMX 4086, ERY^R CC^R.

Values after ≈ are worked out from the molar mass of the structure shown. Values joined by “and” are separate entries in the source; they are usually repeats but may differ in a detail not shown here. Equal entries are not always repeated. Where two headings read alike, the source gives them in different places.

The MIC is the lowest concentration found to suppress growth.

As to `C[C@H]1[C@H](NC(=O)/C(=N\OC(C)(C)C(=O)O)c2csc(N)n2)C(=O)N1S(=O)(=O)O` [AZT], the MIC against P. aeruginosa [1] (P. aeruginosa isolate 103 (ATCC 25922), QC strain, initial MIC testing) was 8 µg/mL (≈ 18.4 µM); in the data set with P. aeruginosa [1] (P. aeruginosa isolate 103 (ATCC 25922), during FIC testing, each agent tested alone for QC, one replicate), 8 µg/mL; against P. aeruginosa [1] (P. aeruginosa isolate 1497 (TOB-R, AMK-R, CIP-I, AZT-R, COL-R), initial MIC testing), 32 µg/mL (≈ 73.5 µM); with P. aeruginosa [1] (P. aeruginosa isolate 1530 (TOB-R, AMK-R, CIP-R), initial MIC testing), 4 µg/mL (≈ 9.19 µM); against P. aeruginosa [1] (P. aeruginosa isolate 1553 (TOB-R, AMK-R, CIP-R), initial MIC testing), 8 µg/mL (≈ 18.4 µM); in the data set on P. aeruginosa [1] (P. aeruginosa isolate 6322 (MEM-R, TOB-R, AMK-R, CIP-R, AZT-R), initial MIC testing), 64 µg/mL (≈ 147 µM). In addition, the MIC with P. aeruginosa [1] (P. aeruginosa isolate 6977 (MEM-I, TOB-R, CIP-R, AZT-I), initial MIC testing) stood at 16 µg/mL (≈ 36.7 µM); against P. aeruginosa [1] (P. aeruginosa isolate 7745 (MEM-R, CIP-R, AZT-R), initial MIC testing), 32 µg/mL (≈ 73.5 µM); with P. aeruginosa [1] (P. aeruginosa isolate 7754 (MEM-R, TOB-R, CIP-R, AZT-I), initial MIC testing), 16 µg/mL (≈ 36.7 µM); with P. aeruginosa [1] (P. aeruginosa isolate 7762 (MEM-I, CIP-I), initial MIC testing), 8 µg/mL (≈ 18.4 µM); in the data set on P. aeruginosa [1] (P. aeruginosa isolate 7871 (MEM-R, AZT-I), initial MIC testing) it was 16 µg/mL (≈ 36.7 µM); in the data set on P. aeruginosa [1] (P. aeruginosa isolate 7874, initial MIC testing) it was 4 µg/mL (≈ 9.19 µM). Also, the MIC with P. aeruginosa [1] (P. aeruginosa isolate 7886 (MEM-R, CIP-R, AZT-R), initial MIC testing) is 64 µg/mL (≈ 147 µM); with P. aeruginosa [1] (P. aeruginosa isolate 8797 (MEM-R, TOB-R, AMK-R, CIP-R, AZT-R, COL-R), initial MIC testing), over 256 µg/mL; in the data set on P. aeruginosa [1] (P. aeruginosa isolate 8798 (MEM-R, TOB-R, AMK-R, CIP-R, AZT-R, COL-R), initial MIC testing) it was 256 µg/mL (≈ 588 µM); against P. aeruginosa [1] (P. aeruginosa isolate 9108 (CIP-R, AZT-I), initial MIC testing), 16 µg/mL (≈ 36.7 µM); in data set [2] (B. cenocepacia isolate 0548), 64 µg/mL; in data set [2] (B. cenocepacia isolate 0813), 32 µg/mL. Also, the MIC in data set [2] (B. multivorans isolate 1795) worked out at 16 µg/mL; in data set [3] (B. cenocepacia isolate 0813 (CPI-I)), 8 µg/mL (≈ 18.4 µM); in data set [3] (B. cenocepacia isolate 1631) it was 32 µg/mL (≈ 73.5 µM); in data set [3] (B. cenocepacia isolate 1783), 32 µg/mL (≈ 73.5 µM); in data set [3] (B. cenocepacia isolate 8555), 256 µg/mL (≈ 588 µM); in data set [3] (B. cepacia isolate 0546) it was 16 µg/mL (≈ 36.7 µM). The MIC was 16 µg/mL (≈ 36.7 µM) in data set [3] (B. cepacia isolate 0547); 128 µg/mL (≈ 294 µM) in data set [3] (B. cepacia isolate 1793); 32 µg/mL (≈ 73.5 µM) in data set [3] (B. cepacia isolate 1794); 32 µg/mL (≈ 73.5 µM) in data set [3] (B. cepacia isolate 9040); 64 µg/mL (≈ 147 µM) in data set [3] (B. multivorans isolate 1580 (CIP-R)); 4 µg/mL (≈ 9.19 µM) in data set [3] (B. multivorans isolate 1791). In addition, the MIC in data set [3] (B. multivorans isolate 1795 (MEM-I, CIP-R)) amounted to 4 µg/mL (≈ 9.19 µM); in data set [3] (B. multivorans isolate 5665 (CIP-I)) it was 4 µg/mL (≈ 9.19 µM); in data set [3] (B. multivorans isolate 8952 (CIP-I)) it was 8 µg/mL (≈ 18.4 µM).

For the molecule `C[C@H]1COc2c(N3CCN(C)CC3)c(F)cc3c(=O)c(C(=O)O)cn1c23` [Levofloxacin, reference compound], the MIC in data set [4] is over 64 µg/mL; in data set [5] (setting [9]) it was 0.5 µg/mL (≈ 1.38 µM); in data set [5] (setting [10]), 1 µg/mL (≈ 2.77 µM); in data set [5] (setting [11]) it was 0.5 µg/mL (≈ 1.38 µM); in data set [5] (setting [12]) it was 1 µg/mL (≈ 2.77 µM); in data set [5] (setting [13]) it was 0.5 µg/mL (≈ 1.38 µM).

Consider `NC[C@H]1O[C@H](O[C@H]2[C@H](O)[C@@H](O[C@H]3O[C@H](CO)[C@@H](O)[C@H](N)[C@H]3O)[C@H](N)C[C@@H]2N)[C@H](N)C[C@@H]1O` [Tobramycin, reference compound], for which the “CFU higher in cultures with sputum than without” value in data set [6] (PA01, 1 μg/mL, 10% CF sputum, most time points) is on record as 0.5-1 log CFU/mL. The “effect of CF patient sputum on bactericidal activity” value in data set [6] (PA01, 10% CF patient sputum) was “partially inhibits”. Moreover, the FICB in data set [2] (B. cenocepacia 548, FIC of Tobramycin in combination with BisEDT) is 0.25; in data set [2] (B. cenocepacia 813, FIC of Tobramycin in combination with BisEDT) it was 1; in data set [2] (B. cepacia 546, Tobramycin FIC in combination with BisEDT, per checkerboard row) it was 0.5; in data set [2] (B. cepacia 1793, Tobramycin FIC in combination with BisEDT, per checkerboard row), 0.5 and 1; in data set [2] (B. multivorans 1795, FIC of Tobramycin in combination with BisEDT) it was 1; in the data set on P. aeruginosa [7] (P. aeruginosa 6322, FIC of Tobramycin in combination with BisEDT, panel rows C-G), 1. Also, the FICB in the data set with P. aeruginosa [7] (P. aeruginosa 6977, Tobramycin FIC in combination with BisEDT, per checkerboard row) was 2; with P. aeruginosa [7] (P. aeruginosa 7745, Tobramycin FIC in combination with BisEDT, per checkerboard row), 1; with P. aeruginosa [7] (P. aeruginosa 9108, Tobramycin FIC in combination with BisEDT, per checkerboard row) it was 1. Also, the MICB is 16 µg/mL in data set [2] (B. cepacia 546, Tobramycin MIC in combination with BisEDT, per checkerboard row); 8 µg/mL and 16 µg/mL in data set [2] (B. cepacia 1793, Tobramycin MIC in combination with BisEDT, per checkerboard row); over 256 µg/mL in data set [2] (B. multivorans 1795, MIC of Tobramycin in combination with BisEDT); 128 µg/mL with P. aeruginosa [7] (P. aeruginosa 6322, MIC of Tobramycin in combination with BisEDT, panel rows C-G); 256 µg/mL in the data set on P. aeruginosa [7] (P. aeruginosa 6977, Tobramycin MIC in combination with BisEDT, per checkerboard row); 0.5 µg/mL in the data set on P. aeruginosa [7] (P. aeruginosa 7745, Tobramycin MIC in combination with BisEDT, per checkerboard row). The MICB with P. aeruginosa [7] (P. aeruginosa 9108, Tobramycin MIC in combination with BisEDT, per checkerboard row) worked out at 0.5 µg/mL. Besides, the MMAD in data set [8] is 2.81 μm.

On to `CCC[C@@H]1C[C@@H](C(=O)N[C@@H]([C@H]2O[C@H](SC)[C@H](O)[C@@H](O)[C@H]2O)[C@H](C)Cl)N(C)C1` [clindamycin, reference compound], for which the MIC in data set [4] is over 32 µg/mL; in data set [5] (setting [9]), over 8 µg/mL; in data set [5] (setting [10]), over 8 µg/mL; in data set [5] (setting [11]), over 8 µg/mL; in data set [5] (setting [12]) it was over 8 µg/mL; in data set [5] (setting [13]), over 8 µg/mL.

In the case of Colistin, the FICB in data set [2] (B. multivorans 1795, FIC of Colistin in combination with BisEDT) is listed as 1; in the data set with P. aeruginosa [7] (P. aeruginosa 6322, Colistin FIC in combination with BisEDT, per checkerboard row) it was 1; in the data set with P. aeruginosa [7] (P. aeruginosa 6977, Colistin FIC in combination with BisEDT, per checkerboard row), 1; with P. aeruginosa [7] (P. aeruginosa 7745, Colistin FIC in combination with BisEDT, per checkerboard row) it was 1. The MICB with P. aeruginosa [7] (P. aeruginosa 6322, Colistin MIC in combination with BisEDT, per checkerboard row) was 0.5 µg/mL; in the data set on P. aeruginosa [7] (P. aeruginosa 6977, Colistin MIC in combination with BisEDT, per checkerboard row), 1 µg/mL; in the data set with P. aeruginosa [7] (P. aeruginosa 7745, Colistin MIC in combination with BisEDT, per checkerboard row), 0.5 µg/mL. Also, the “Drug B MIC” value in the data set with P. aeruginosa [7] (P. aeruginosa 6322) was 0.5 µg/mL; in the data set with P. aeruginosa [7] (P. aeruginosa 6977), 1 µg/mL; with P. aeruginosa [7] (P. aeruginosa 7745), 0.5 µg/mL; with P. aeruginosa [7] (P. aeruginosa 8798) it was over 256 µg/mL; in the data set with P. aeruginosa [7] (P. aeruginosa 9108), 0.5 µg/mL.

The values are drawn from patent US12186283B2, “Bismuth-thiol compositions and methods of use” (Microbion Corporation, priority 2018, dated 2025).
